These results are taken from patent US20120309728A1, “NEW STEROID INHIBITORS OF PGP FOR USE FOR INHIBITING MULTIDRUG RESISTANCE” (priority 2009, published 2012).

One assay concerns K562/R7 cells. In words: Cytotoxicity assay using MTT reagent, with doxorubicin plus steroid modulator. As to conditions: for Surviving cells R7 cells (% untreated cells): doxorubicin 10^−6M + steroid modulator 10^−6M, 72 h; for activity compared with cyclosporine A (in words): comment on Table 2 bis, R7 cells. The format is cell-based, human. The protocol:
Doxorubicin at 10^−6 M was then added to each well. After incubation for 72 h, 20 μL of MTT reagent (5 mg/mL in PBS buffer) were added to each well and the plate was further incubated for 4 h at 37° C., allowing viable cells to change the yellow MTT into dark-blue formazan crystals. Supernatants were carefully discarded and 100 μL of isopropanol containing 10% HCL 1M were added to dissolve the formazan crystals. Absorbance in each well was determined at 570 nm using a microplate reader (MultisKan EX, Thermo Electron). […] At least three different experiments were performed. Results were expressed as the percentage of surviving cells in each well compared to untreated cells.
On the technique in general: Tetrazolium assays rely on reduction of a dye to a coloured formazan, in cell work by metabolically active cells.

The next assay has as its system R7 cells. Kind of assay: Intracellular accumulation of daunorubicin measured by flow cytometry. The format is cell-based, human. As to conditions: for Daunorubicin accumulation: daunorubicin 10 μM, compound 10 μM, 1 h at 37° C. The procedure: The accumulation of daunorubicin in the presence of steroid modulators according to the invention, i.e. compounds having formula (I), was measured by flow cytometry using a reported procedure (G. Comte et al, J. Med. Chem., 44: 763-768, 2001). K562 or R7 cells ([…]) were incubated for 1 h at 37° C. with 1 mL RPMI 1640 medium containing daunorubicin at 10 μM, in the presence or absence of compounds of the invention (10 μM). The cells were then washed twice with ice-cold PBS and kept on ice until analysis by flow cytometry on a FACS-II (Becton-Dickinson Corp., Mountain View, Calif.). Assays were performed in duplicate, in at least three separate experiments.

Take `CC(=O)C1CCC2C3C[C@@H](OC(=O)c4ccccc4)[C@@H]4CC(=O)CCC4(C)C3[C@H](OC3CCCCO3)CC12C` (mixture of isomers) [Compound 217, 6β-Benzoyloxy-11α-O-[2′(R and S)]tetrahydropyranyloxy(5β)pregnan-3,20-dione]: the “Surviving cells R7 cells (% untreated cells)” value in the assay on K562/R7 cells is 5.5 ± 0.4 % untreated cells.

On to `CC(=O)C1CCC2C3C[C@@H](OC(=O)c4ccccc4)[C@@H]4CC(=O)CCC4(C)C3[C@H](OC3CCCCO3)CC12C` (mixture of isomers) [Compound 218, 6β-Benzoyloxy-11α-O-[2′(R and S)]tetrahydropyranyloxy(5β)pregnan-3,20-dione], for which the “Surviving cells R7 cells (% untreated cells)” value in the assay with K562/R7 cells was found to be 6.2 ± 1.1 % untreated cells.

As to `COC(=O)CC[C@@H](C)[C@H]1CC[C@H]2[C@@H]3[C@H](OC(=O)c4ccccc4)CC4CC(=O)CC[C@]4(C)[C@H]3C[C@H](O[C@@H]3CCCCO3)[C@]12C` (single isomer, unassigned) [Compound 60], the “Surviving cells R7 cells (% untreated cells)” value with K562/R7 cells turned out to be 2.2 ± 0.3 % untreated cells. For the same molecule, the Daunorubicin accumulation in the assay on R7 cells is reported as 79.8 ± 6.1 % of the accumulation measured in the presence of cyclosporine A.

As to `CC(=O)C1CCC2C3C(CC[C@]12C)[C@@]1(C)CCC(=O)C=C1C[C@@H]3OC1CCCCO1` (stereo partly drawn) [Compound 3, 7beta-O-[2′(R+S)]Tetrahydropyranyloxypregn-4-ene-3,20-dione], the Daunorubicin accumulation in the assay on R7 cells is given as 108.78 ± 4.27 % of the accumulation measured in the presence of cyclosporine A.

Regarding `CC(=O)C1CCC2C3CC[C@@H]4CC(=O)CC[C@]4(C)C3[C@H](OC3CCCCO3)C[C@]12C` (stereo partly drawn) [Compound 7, 11α-O-[2′(R)]Tetrahydropyranyloxy(5β)pregnane-3,20-dione], the Daunorubicin accumulation in the assay on R7 cells is 103.0 ± 1.86 % of the accumulation measured in the presence of cyclosporine A.

Take `CC(=O)[C@@]1(OC2CCCCO2)CCC2C3CCC4=CC(=O)CC[C@]4(C)C3CC[C@@]21C` (stereo partly drawn) [Compound 11, 17alpha-O-[2′(R)]Tetrahydropyranyloxypregn-4-ene-3,20-dione]: in the assay with R7 cells, the Daunorubicin accumulation is 108.08 ± 6.28 % of the accumulation measured in the presence of cyclosporine A.

In the case of `CC(=O)[C@H]1CC[C@H]2[C@H]3[C@H]([C@H](OC(=O)c4ccccc4)C[C@]12C)[C@@]1(C)CCC(=O)C[C@H]1C[C@H]3OC(=O)c1ccccc1` [Compound 30, 7alpha,11alpha-Di benzoyloxy(5beta)pregnane-3,20-dione], the Daunorubicin accumulation in the assay with R7 cells was 75.39 ± 0.39 % of the accumulation measured in the presence of cyclosporine A.

As to `CC(=O)C1CCC2C3C([C@H](OC4CCCCO4)C[C@]12C)[C@@]1(C)CCC(=O)C[C@H]1C[C@H]3OC(=O)c1ccccc1` (stereo partly drawn) [Compound 32, 7α-Benzoyloxy-11α-O-[2′(S)]tetrahydropyranyloxy (5β)pregnane-3,20-dione], the Daunorubicin accumulation in the assay on R7 cells is given as 103.88 ± 4.53 % of the accumulation measured in the presence of cyclosporine A.

Take `CC(=O)C1CCC2C3C([C@H](OC4CCCCO4)C[C@]12C)[C@@]1(C)CCC(=O)C[C@H]1C[C@@H]3OC(=O)c1ccccc1` (stereo partly drawn) [Compound 39, 7β-Benzoyloxy-11α-O-[2′(S)]tetrahydropyranyloxy(5β)pregnane-3,20-dione]: in the assay on R7 cells, the Daunorubicin accumulation is given as 109.0 ± 1.0 % of the accumulation measured in the presence of cyclosporine A.

For the molecule `CC(=O)C1CCC2C3C([C@H](OC4CCCCO4)C[C@]12C)[C@@]1(C)CCC(=O)C[C@H]1C[C@@H]3OC(=O)c1ccccc1` (stereo partly drawn) [Compound 40, 7β-Benzoyloxy-11α-O-[2′(R)]tetrahydropyranyloxy(5β) pregnane-3,20-dione], the Daunorubicin accumulation in the assay on R7 cells was 89.5 ± 0.5 % of the accumulation measured in the presence of cyclosporine A.

As for `CC(=O)[C@H]1CC[C@H]2[C@H]3[C@H]([C@H](OC(=O)c4ccccc4)C[C@]12C)[C@@]1(C)CCC(=O)C[C@H]1C[C@@H]3OC(=O)c1ccccc1` [Compound 41, 7β,11α-Dibenzoyloxy(5β)pregnane-3,20-dione], the Daunorubicin accumulation with R7 cells is recorded as 73.3 ± 0.5 % of the accumulation measured in the presence of cyclosporine A.

For the molecule `CC(=O)[C@@]1(OC2CCCCO2)CCC2C3CC[C@@H]4CC(=O)CC[C@]4(C)C3[C@H](OC3CCCCO3)C[C@@]21C` (stereo partly drawn) [Compound 52, 11α,17α-Bis-O-[2′(R),2′(R)]tetrahydropyranyloxy(5β)pregnane-3,20-dione], in the assay with R7 cells, the “accumulation of daunorubicin compared in words with cyclosporine A or progesterone” value is “equivalent to that observed with cyclosporine A” and the Daunorubicin accumulation is recorded as 102.01 ± 2.0 % of the accumulation measured in the presence of cyclosporine A.

Take `CC(=O)[C@@]1(O[C@H]2CCCCO2)CC[C@H]2[C@@H]3CC[C@@H]4CC(=O)CC[C@]4(C)[C@H]3[C@H](O[C@H]3CCCCO3)C[C@@]21C` [Compound 53, 11α,17α-Bis-O-[2′(S),2′(S)]Tetrahydropyranyloxy(5β)pregnane-3,20-dione]: in the assay on R7 cells, the “accumulation of daunorubicin compared in words with cyclosporine A or progesterone” value is recorded as “equivalent to that observed with cyclosporine A” and the Daunorubicin accumulation is given as 107.0 ± 5.0 % of the accumulation measured in the presence of cyclosporine A.

Consider `COC(=O)CC[C@@H](C)[C@H]1CC[C@H]2[C@@H]3[C@H](OC(=O)c4ccccc4)CC4CC(=O)CC[C@]4(C)[C@H]3C[C@H](OC(=O)c3ccccc3)[C@]12C` (stereo partly drawn) [Compound 57, Methyl 3-oxo-7alpha,12alpha-dibenzoyloxycholanate], for which the Daunorubicin accumulation with R7 cells was 74 ± 1.0 % of the accumulation measured in the presence of cyclosporine A.

For `COC(=O)CC[C@@H](C)[C@H]1CC[C@H]2[C@@H]3[C@H](OC(=O)c4ccccc4)CC4CC(=O)CC[C@]4(C)[C@H]3C[C@H](O[C@H]3CCCCO3)[C@]12C` (stereo partly drawn) [Compound 59, Methyl 3-oxo-7α-benzoyloxy-12α-O-[2′(S)]tetrahydropyranyloxycholanate], in the assay on K562/R7 cells, the “Surviving cells R7 cells (% untreated cells)” value came out at 1.8 ± 0.1 % untreated cells. Moreover, in the assay on R7 cells, the Daunorubicin accumulation is reported as 85.8 ± 2.6 % of the accumulation measured in the presence of cyclosporine A.

`COC(=O)CC[C@@H](C)[C@H]1CC[C@H]2[C@@H]3[C@H](O[C@H]4CCCCO4)CC4CC(=O)CC[C@]4(C)[C@H]3C[C@H](OC(=O)c3ccccc3)[C@]12C` (stereo partly drawn) [Compound 63, methyl 3-oxo-12α-benzoyloxy-7α-O-[2′(S)]tetrahydro-pyranyloxycholanate]: in the assay with K562/R7 cells, the “activity compared with cyclosporine A (in words)” value is “activity higher than that of the reference compound cyclosporine A” and the “Surviving cells R7 cells (% untreated cells)” value amounted to 0.7 ± 0.06 % untreated cells. Besides, the Daunorubicin accumulation with R7 cells was 104.7 ± 7.0 % of the accumulation measured in the presence of cyclosporine A.

As for `COC(=O)CC[C@@H](C)[C@H]1CC[C@H]2[C@@H]3[C@H](O[C@@H]4CCCCO4)CC4CC(=O)CC[C@]4(C)[C@H]3C[C@H](OC(=O)c3ccccc3)[C@]12C` (stereo partly drawn) [Compound 64, methyl 3-oxo-12α-benzoyloxy-7α-O-[2′(R)]tetra-hydropyranyloxycholanate], in the assay on K562/R7 cells, the “activity compared with cyclosporine A (in words)” value was “activity higher than that of the reference compound cyclosporine A” and the “Surviving cells R7 cells (% untreated cells)” value is reported as 0.8 ± 0.06 % untreated cells. In the assay with R7 cells, the Daunorubicin accumulation is recorded as 10.0 ± 1.5 % of the accumulation measured in the presence of cyclosporine A.

`COCCC[C@@H](C)[C@H]1CC[C@H]2[C@@H]3[C@H](OC(=O)c4ccccc4)CC4CC(=O)CC[C@]4(C)[C@H]3C[C@H](OC(=O)c3ccccc3)[C@]12C` (stereo partly drawn) [Compound 71, 3-oxo-7α,12α-dibenzoyloxy-24-methoxycholane]: the Daunorubicin accumulation with R7 cells was 50.50 ± 7.5 % of the accumulation measured in the presence of cyclosporine A.

With `COCCC[C@@H](C)[C@H]1CC[C@H]2[C@@H]3[C@H](O[C@H]4CCCCO4)CC4CC(=O)CC[C@]4(C)[C@H]3C[C@H](OC(=O)c3ccccc3)[C@]12C` (stereo partly drawn) [Compound 73, 3-oxo-12α-benzoyloxy-7α-O-[2′(S)]tetrahydro-pyranyloxy-24-methoxycholane], in the assay on R7 cells, the Daunorubicin accumulation is 63.5 ± 5.5 % of the accumulation measured in the presence of cyclosporine A.

As for `COCCC[C@@H](C)[C@H]1CC[C@H]2[C@@H]3[C@H](O[C@@H]4CCCCO4)CC4CC(=O)CC[C@]4(C)[C@H]3C[C@H](OC(=O)c3ccccc3)[C@]12C` (stereo partly drawn) [Compound 74, 3-oxo-12α-benzoyloxy-7α-O-[2′(R)]tetrahydropyranyloxy-24-methoxycholane], in the assay on R7 cells, the Daunorubicin accumulation is reported as 68.0 ± 15.0 % of the accumulation measured in the presence of cyclosporine A.

Consider `CC(=O)[C@H]1CC[C@H]2[C@H]3[C@H]([C@H](O)C[C@]12C)[C@@]1(C)CCC(=O)C[C@H]1C[C@H]3OC1CCCCO1` (stereo partly drawn) [Compound 204, 7α-O-[2′(R+S)]Tetrahydropyranyloxy-11α-hydroxy(5β)pregnane-3,20-dione], for which the “Surviving cells R7 cells (% untreated cells)” value in the assay with K562/R7 cells was found to be 2.8 ± 0.7 % untreated cells. For the same molecule, in the assay with R7 cells, the Daunorubicin accumulation is given as 87.4 ± 3.5 % of the accumulation measured in the presence of cyclosporine A.

Turning to `CC(=O)[C@H]1CC[C@H]2[C@@H]3CCC4=CC(=O)CC[C@]4(C)[C@H]3CC[C@]12C` [progesterone, reference compound], in the assay with R7 cells, the Daunorubicin accumulation was 36.27 ± 4.9 % of the accumulation measured in the presence of cyclosporine A.

In the case of Cyclosporine A [reference compound], the “Surviving cells R7 cells (% untreated cells)” value with K562/R7 cells is on record as 1.6 ± 0.5 % untreated cells.
